How the values were obtained:
Assay type in all cases: in vivo
[1] = tested on: AMARE: pigweed, redroot (Amaranthus retroflexus); test: Pre-emergent Test I herbicidal activity; conditions: Table 5, 140 g ai/ha
Description: (§1) Seeds of the desired test plant species were planted in a soil matrix prepared by mixing a loam soil (43 percent silt, 19 percent clay, and 38 percent sand, with a pH of about 8.1 and an organic matter content of about 1.5 percent) and sand in a 70 to 30 ratio. The soil matrix was contained in plastic pots with a surface area of 113 square centimeters. When required to ensure good germination and healthy plants, a fungicide treatment and/or other chemical or physical treatment was applied.
(§2) A weighed amount, determined by the highest rate to be tested, of each test compound was placed in a 25 mL glass vial and was dissolved in 6 mL of a 97:3 v/v (volume/volume) mixture of acetone and DMSO to obtain concentrated stock solutions. […] The stock solutions obtained were diluted with 18 mL of a 0.1% v/v aqueous solution of Tween® 20 surfactant to obtain spray solutions containing the highest application rate. Additional application rates were obtained by serial dilution of 12 mL of the high rate solution into a solution containing 3 mL of 97:3 v/v mixture of acetone and DMSO and 9 mL of the 0.1% v/v aqueous solution of Tween® 20 surfactant to obtain ½×, ¼×, ⅛× and 1/16× rates of the high rate. Compound requirements are based upon a 12 mL application volume at a rate of 187 L/ha. Formulated compounds were applied to the plant material with an overhead Mandel track sprayer equipped with 8002E nozzles calibrated to deliver 187 L/ha over an application area of 0.503 square meters at a spray height of 18 inches ([…]) above the soil surface. Control plants were sprayed in the same manner with the solvent blank.
(§3) The treated pots and control pots were placed in a greenhouse maintained with an approximate 15 hour photoperiod and temperatures of about 23-29° C. during the day and 22-28° C. during the night. Nutrients and water were added on a regular basis and supplemental lighting was provided with overhead metal halide 1000-Watt lamps as necessary. The water was added by top-irrigation. After 20-22 days, the condition of the test plants that germinated and grew as compared with that of the untreated plants that emerged and grew was determined visually and scored on a scale of 0 to 100 percent where 0 corresponds to no injury and 100 corresponds to complete kill or no emergence.

[2] = tested on: SETFA: foxtail, giant (Setaria faberi); test: Pre-emergent Test I herbicidal activity; conditions: Table 5, 140 g ai/ha
Description: as §1, §2, §3

[3] = tested on: CYPRO = Cyperus rotundus L. (purple nutsedge); test: In-water applied herbicidal activity in transplanted paddy rice; conditions: 21 DAA
Description: (§4) Rice seeds were planted in Sun Gro MetroMix 306 planting mixture, which typically has a pH of 6.0 to 6.8 and an organic matter content of about 30 percent, in plastic plug trays. Seedlings at the second or third leaf stage of growth were transplanted into 650 mL of mud contained in 960 mL non-perforated plastic pots with a surface area of 86.59 cm^2 four days prior to herbicide application. The paddy was created by filling the 2.5 to 3 cm headspace of the pots with water. When required to ensure good germination and healthy plants, a fungicide treatment and/or other chemical or physical treatment was applied. The plants were grown for 4-14 d in a greenhouse with an approximate 14-h photoperiod which was maintained at about 29° C. during the day and 26° C. during the night. Nutrients were added as Osmocote (17:6:10, Nitrogen:Phosphorus:Potassium (N:P:K)+minor nutrients) at 2 grams (g) per cup. Water was added on a regular basis to maintain the paddy flood, and supplemental lighting was provided with overhead metal halide 1000-Watt lamps as necessary. The plants were employed for testing when they reached the second or third true leaf stage. Treatments consisted of compounds 45, 34, and 66. For technical grade compounds, a weighed amount, determined by the highest rate to be tested, was placed in an individual 120 mL glass vial and was dissolved in 20 mL of acetone to obtain concentrated stock solutions. […] The concentrated stock solutions obtained were diluted with 20 mL of an aqueous mixture containing 2.5% Agri-dex crop oil concentrate (v/v). Applications were made by injecting an appropriate amount of the stock solution into the aqueous layer of the paddy. Control plants were treated in the same manner with the solvent blank. All treated plant material received the same concentration of acetone and crop oil concentrate. The treated plants and control plants were placed in a greenhouse as described above and water was added as needed to maintain a paddy flood. After approximately 3 weeks, the condition of the test plants, compared with that of the untreated plants, was determined visually and scored on a scale of 0 to 100 percent where 0 corresponds to no injury and 100 corresponds to complete kill. By applying the well-accepted probit analysis as described by J. Berkson in Journal of the […], 48, 565 (1953) and by D. Finney in “Probit Analysis” Cambridge University Press (1952) or by plotting the mean data and fitting a logarithmic curve to the portion of the data where there was a dose response using Microsoft Excel®, the above data can be used to calculate GR50 and GR90 values, which are defined as growth reduction factors that correspond to the effective dose of herbicide required to kill or control 50 percent or 90 percent, respectively, of a target plant.

[4] = tested on: ECHOR = Echinochloa crus-galli P.B. var. oryzoides (VAS.) OHWI (early watergrass); test: as above; conditions: 21 DAA
Description: as §4

[5] = tested on: FIMMI = Fimbristylis miliacea (L.) VAHL (globe fringerush); test: as above; conditions: 21 DAA
Description: as §4

[6] = tested on: LEFCH = Leptochloa chinensis (L.) NEES (Chinese sprangletop); test: as above; conditions: 21 DAA
Description: as §4

[7] = tested on: LIDDU = Lindernia dubia (L.) PENNELL (low falsepimpernel); test: as above; conditions: 21 DAA
Description: as §4

[8] = dose to kill or control 50 percent
[9] = dose to kill or control 90 percent

`COc1c(N)cc(-c2ccc(Cl)cc2)nc1C(=O)O` [Compound 46] was tested, and the “Visual Growth Reduction (%)-21 Days after Application AMARE” value [1] was 95% and the “Visual Growth Reduction (%)-21 Days after Application SETFA” value [2] was 100%.

In the case of `COc1c(C(=O)OCc2ccccc2)nc(-c2ccc(Cl)c(OC)c2F)c(F)c1N` [Compound 66, benzyl 4-amino-6-(4-chloro-2-fluoro-3-methoxyphenyl)-5-fluoro-3-methoxypicolinate], the “Mean Visual Injury (%)-21 Days After Application CYPRO” value ([3]; 4.38 g ae/ha) is reported as 65%, the “Mean Visual Injury (%)-21 Days After Application CYPRO” value ([3]; 8.75 g ae/ha) is reported as 100% and the “Mean Visual Injury (%)-21 Days After Application CYPRO” value ([3]; 17.5 g ae/ha) is reported as 100%. The “Mean Visual Injury (%)-21 Days After Application CYPRO” value ([3]; 35 g ae/ha) was 100%, the “Mean Visual Injury (%)-21 Days After Application CYPRO” value ([3]; 70 g ae/ha) was 100% and the “GR50 CYPRO” value [3, 8] was under 4.38 g ae/ha. For the same compound, the “GR90 CYPRO” value [3, 9] was 7.2 g ae/ha, the “Mean Visual Injury (%)-21 Days After Application ECHOR” value ([4]; 2.19 g ae/ha) was 0% and the “Mean Visual Injury (%)-21 Days After Application ECHOR” value ([4]; 4.38 g ae/ha) was 0%. The “Mean Visual Injury (%)-21 Days After Application ECHOR” value ([4]; 8.75 g ae/ha) was 8%, the “Mean Visual Injury (%)-21 Days After Application ECHOR” value ([4]; 17.5 g ae/ha) was 21% and the “Mean Visual Injury (%)-21 Days After Application ECHOR” value ([4]; 35 g ae/ha) was 89%. For the same compound, the “Mean Visual Injury (%)-21 Days After Application ECHOR” value ([4]; 70 g ae/ha) was 95%, the “GR50 ECHOR” value [4, 8] was 21.2 g ae/ha and the “GR90 ECHOR” value [4, 9] was 59.0 g ae/ha. The “Mean Visual Injury (%)-21 Days After Application FIMMI” value ([5]; 2.19 g ae/ha) was 0%, the “Mean Visual Injury (%)-21 Days After Application FIMMI” value ([5]; 4.38 g ae/ha) was 10% and the “Mean Visual Injury (%)-21 Days After Application FIMMI” value ([5]; 8.75 g ae/ha) was 36%. For the same compound, the “Mean Visual Injury (%)-21 Days After Application FIMMI” value ([5]; 17.5 g ae/ha) was 73%, the “Mean Visual Injury (%)-21 Days After Application FIMMI” value ([5]; 35 g ae/ha) was 100% and the “Mean Visual Injury (%)-21 Days After Application FIMMI” value ([5]; 70 g ae/ha) was 100%. For the same compound, the “GR50 FIMMI” value [5, 8] was 10.3 g ae/ha, the “GR90 FIMMI” value [5, 9] was 29.7 g ae/ha and the “Mean Visual Injury (%)-21 Days After Application LEFCH” value ([6]; 2.19 g ae/ha) was 0%. The “Mean Visual Injury (%)-21 Days After Application LEFCH” value ([6]; 4.38 g ae/ha) was 0%, the “Mean Visual Injury (%)-21 Days After Application LEFCH” value ([6]; 8.75 g ae/ha) was 0% and the “Mean Visual Injury (%)-21 Days After Application LEFCH” value ([6]; 17.5 g ae/ha) was 0%. For the same compound, the “Mean Visual Injury (%)-21 Days After Application LEFCH” value ([6]; 35 g ae/ha) was 16%, the “Mean Visual Injury (%)-21 Days After Application LEFCH” value ([6]; 70 g ae/ha) was 100% and the “GR50 LEFCH” value [6, 8] was 40.9 g ae/ha. The “GR90 LEFCH” value [6, 9] was 71.2 g ae/ha, the “Mean Visual Injury (%)-21 Days After Application LIDDU” value ([7]; 2.19 g ae/ha) was 0% and the “Mean Visual Injury (%)-21 Days After Application LIDDU” value ([7]; 4.38 g ae/ha) was 100%. For the same compound, the “Mean Visual Injury (%)-21 Days After Application LIDDU” value ([7]; 8.75 g ae/ha) was 100%, the “Mean Visual Injury (%)-21 Days After Application LIDDU” value ([7]; 17.5 g ae/ha) was 100% and the “Mean Visual Injury (%)-21 Days After Application LIDDU” value ([7]; 35 g ae/ha) was 100%. For the same compound, the “Mean Visual Injury (%)-21 Days After Application LIDDU” value ([7]; 70 g ae/ha) was 100%, the “GR50 LIDDU” value [7, 8] was under 4.38 g ae/ha and the “GR90 LIDDU” value [7, 9] was under 4.38 g ae/ha.
